Results from BindingDB's records for patent US20240190892 (Merck Sharp & Dohme, 2024).
pIC50: −log10 of the molar value.

Columns and labels:
Plasma kallikrein = Plasma kallikrein (Homo sapiens, UniProt P03952); experiment: Plasma Kallikrein Assay
Description: (§1) The effectiveness of a compound of the present invention as an inhibitor of plasma kallikrein can be determined using a relevant purified serine protease, and an appropriate synthetic substrate. The rate of hydrolysis of the chromogenic or fluorogenic substrate by the relevant serine protease was measured both in the absence and presence of compounds of the present invention. Assays were conducted at rt or at 37° C. […] A decrease in the rate of fluorescence change in the presence of inhibitor is indicative of enzyme inhibition. Such methods are known to one skilled in the art. The results of this assay are expressed as the half-maximal inhibitory concentrations (IC50), or the inhibitory constant, Ki.

Coagulation factor XI = Coagulation factor XI (Homo sapiens, UniProt P03951); experiment: Factor XIa Assay
Sequence of Coagulation factor XI (P03951 19-387 limits assumed): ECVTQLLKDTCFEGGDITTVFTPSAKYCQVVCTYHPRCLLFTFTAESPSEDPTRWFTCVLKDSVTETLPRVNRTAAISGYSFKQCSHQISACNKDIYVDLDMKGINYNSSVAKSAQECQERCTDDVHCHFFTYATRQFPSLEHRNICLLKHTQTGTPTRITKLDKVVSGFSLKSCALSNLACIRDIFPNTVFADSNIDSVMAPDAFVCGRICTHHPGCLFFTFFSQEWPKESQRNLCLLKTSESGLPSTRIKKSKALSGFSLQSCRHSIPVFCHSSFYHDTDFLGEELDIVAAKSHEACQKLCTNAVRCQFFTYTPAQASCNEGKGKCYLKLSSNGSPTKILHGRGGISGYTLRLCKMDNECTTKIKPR
Sequence of Coagulation factor XI (P03951 388-625 limits assumed): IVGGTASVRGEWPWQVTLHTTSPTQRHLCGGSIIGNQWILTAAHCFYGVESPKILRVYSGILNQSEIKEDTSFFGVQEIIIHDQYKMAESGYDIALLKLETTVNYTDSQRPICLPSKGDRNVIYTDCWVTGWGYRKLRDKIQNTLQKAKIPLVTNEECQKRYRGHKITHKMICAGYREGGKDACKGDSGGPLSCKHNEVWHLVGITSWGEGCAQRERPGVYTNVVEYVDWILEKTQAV
Description: as §1, with “Coagulation factor XIa” for “plasma kallikrein”

Sequence of Plasma kallikrein (P03952 20-390 limits assumed): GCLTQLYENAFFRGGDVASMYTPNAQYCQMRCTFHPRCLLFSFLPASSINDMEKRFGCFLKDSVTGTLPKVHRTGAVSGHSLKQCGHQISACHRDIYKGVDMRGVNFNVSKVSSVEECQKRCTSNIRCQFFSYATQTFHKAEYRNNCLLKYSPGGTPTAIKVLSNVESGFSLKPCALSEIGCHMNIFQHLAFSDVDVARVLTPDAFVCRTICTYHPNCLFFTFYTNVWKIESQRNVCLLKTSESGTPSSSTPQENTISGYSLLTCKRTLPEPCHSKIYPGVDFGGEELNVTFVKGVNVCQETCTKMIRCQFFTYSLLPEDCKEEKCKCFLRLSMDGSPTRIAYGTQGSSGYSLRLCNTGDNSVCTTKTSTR
Sequence of Plasma kallikrein (P03952 391-638 limits assumed): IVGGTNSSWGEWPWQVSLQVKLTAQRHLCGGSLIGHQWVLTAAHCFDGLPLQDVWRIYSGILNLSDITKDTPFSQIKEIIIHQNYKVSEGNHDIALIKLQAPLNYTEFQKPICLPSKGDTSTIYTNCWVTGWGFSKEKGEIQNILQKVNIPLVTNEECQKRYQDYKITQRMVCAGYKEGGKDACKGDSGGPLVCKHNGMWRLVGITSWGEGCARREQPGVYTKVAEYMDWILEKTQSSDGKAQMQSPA

pIC50 (Plasma kallikrein): 7.55
pIC50 (Coagulation factor XI): ≤ 5.00
SMILES: CC1(O)CN(c2ccc(CNC(=O)c3cncc(N4CC[C@]5(C4)OC(=O)Nc4ccc(Cl)c(F)c45)n3)cn2)C1 [US20240190892, Example 35]
